Data reported in patent US10023591B2, “Heterocyclic derivatives and use thereof” (C&C RESEARCH LABORATORIES, priority 2014, dated 2018).
Like-named read-outs stand apart in the source and are kept apart here.

Key:
STAT1 = STAT1 reporter gene assay (luciferase), U2OS stable cell line pGL4-STAT1-TA-luc, IFN-γ stimulation; format: cell-based, human; conditions: IFN-γ 50 ng/mL, 8 hours, read-out: IC50 (μM) pSTAT1
Protocol: 1-2) Experiment on the Inhibition of STAT1 Activity
A human osteosarcoma cell line (U2OS stable cell line; pGL4-STAT1-TA-luc), which contains a stably operating STAT1 promoter, was cultured in McCoy 5′A medium (Cat No. 16600, Life Technologies) containing 10% FBS (Cat No. SH30396, Thermo Scientific) and 1000 μg/mL G418 solution (Cat No. 04 727 894 001, Roche). The reporter gene assay using U2OS stable cell line was performed in McCoy 5′A medium containing 10% FBS without G-418 solution. U2OS stable cells were plated in two (2) white 96-well plates with 25,000 cells/50 pt in each well. The cells were cultured at 37° C., under 5% CO2 for 24 hours, and then treated with the compounds listed in Examples which were diluted in various concentrations. Subsequently, IFN-γ was added to each well with a final concentration of 50 ng/mL. Upon completion of the treatment with the compounds and IFN-γ, the cells were cultured at 37° C., under 5% CO2 for 8 hours. The plates were observed under microscope and drug precipitation and particular findings were investigated and recorded.
(§1) The luciferase assay and the cell viability assay were performed respectively with one of two plates. For the luciferase assay, the liquid media in the 96-well plate was removed, and then, 20 μL of passive cell lysis buffer was added to each well. After shaking the plate for 30 minutes, luciferase activities of each well were measured in a PHERAstar™ microplate reader (BMG LABTECH) using a luciferase assay system (Cat No. E1501, Promega). For the cell viability assay, the 96-well plate was placed at room temperature for 30 minutes, added with 20 μL/well of CellTiter-Glo solution (Cat No. G7573, Promega), and shaken for 10 minutes in order to measure cytotoxicity caused by the compounds listed in Examples with a PHERAstar™ microplate reader (BMG LABTECH). Wells without 0.1% DMSO and stimulation were used as a negative control and wells with 0.1% DMSO and stimulation were used as a positive control.
(§2) The results of evaluation on the inhibitory effect of the compounds listed in the Examples on the dimerization of STAT3 and STAT1 obtained via the STAT3 and STAT1 reporter gene assays are shown in Table 9 below.

STAT3 = STAT3 reporter gene assay (luciferase), LNCaP stable cell line pSTAT3-TA-luc, IL-6 stimulation; format: cell-based, human
Protocol: 1-1) Experiment on the Inhibition of STAT3 Activity
A human prostate cancer cell line (LNCaP stable cell line; plasmid pSTAT3-TA-luc), which contains a stably operating STAT3 promoter, was cultured in RPMI1640 medium (Cat No. 11875, Life Technologies) containing 10% fetal bovine serum (FBS) (Cat No. SH30396, Thermo Scientific) and 150 μg/mL G-418 solution (Cat No. 04 727 894 001, Roche). The reporter gene assay using LNCaP stable cell line was performed in RPMI1640 medium containing 3% DCC-FBS without G-418 solution. LNCaP stable cells were plated in two (2) white 96-well plates with 30,000 cells/50 μL in each well. The cells were cultured at 37° C., under 5% CO2 for 24 hours, and then treated with the compounds listed in Examples which were diluted in various concentrations. Subsequently, IL-6 was added to each well with a final concentration of 10 ng/mL. Upon completion of the treatment with the compounds and IL-6, the cells were cultured at 37° C., under 5% CO2 for 24 hours. The plates were observed under microscope and drug precipitation and particular findings were investigated and recorded.
as §1, with “one of the two plates.” for “one of two plates.”, “then, 20 μL, of passive” for “then, 20 μL of passive”
as §2

Compound | IC50 (STAT1; Homo sapiens) | IC50 (STAT3; Homo sapiens) | IC50 (STAT1) | IC50 (STAT3)
CC(C)(c1ccc(F)cc1)c1cc(Br)cc(NC(=O)c2cc3cc(C(C)(C)S(C)(=O)=O)ccc3s2)c1 [Example 20, N-(3-bromo-5-(2-(4-fluorophenyl)propan-2-yl)phenyl)-5-(2-(methylsulfonyl)propan-2-yl)benzo[b]thiophene-2-carboxamide] | > 50 µM | 0.067 µM | – | –
N-(3-chloro-5-(2-(3-chloro-5-methoxyphenyl)propan-2-yl)phenyl)-5-(2-(methylsulfonyl)propan-2-yl)benzo[b]thiophene-2-carboxamide [Example 55] | – | – | > 50 µM | 0.0022 µM
COc1cc(NC(=O)c2cc3cc(C(C)(C)S(C)(=O)=O)ccc3s2)cc(C(C)(C)c2cc(OC)cc(OC(F)(F)F)c2)c1 [Example 6, N-(3-methoxy-5-(2-(3-methoxy-5-(trifluoromethoxy)phenyl)propan-2-yl)phenyl)-5-(2-(methylsulfonyl)propan-2-yl)benzo[b]thiophene-2-carboxamide] | > 50 µM | 0.019 µM | – | –
CC(C)(c1ccc2sc(C(=O)Nc3cc(Oc4ccc(Cl)cc4)cc(N4CCC4)c3)cc2c1)S(C)(=O)=O [Example 59, N-(3-(azetidin-1-yl)-5-(4-chlorophenoxy)phenyl)-5-(2-(methylsulfonyl)propan-2-yl)benzo[b]thiophene-2-carboxamide] | > 50 µM | 0.31 µM | – | –
CC(C)(c1ccc2sc(C(=O)Nc3cc(Oc4ccc(Cl)cc4)nc(Cl)n3)cc2c1)S(C)(=O)=O [Example 75, N-(2-chloro-6-(4-chlorophenoxy)pyrimidin-4-yl)-5-(2-(methylsulfonyl)propan-2-yl)benzo[b]thiophene-2-carboxamide] | > 50 µM | 0.24 µM | – | –
COc1ccc(C(C)(C)c2cc(Cl)cc(NC(=O)c3cc4cc(C(C)(C)S(C)(=O)=O)ccc4s3)c2)s1 [Example 29, N-(3-chloro-5-(2-(5-methoxythiophen-2-yl)propan-2-yl)phenyl)-5-(2-(methylsulfonyl)propan-2-yl)benzo[b]thiophene-2-carboxamide] | > 50 µM | 0.0041 µM | – | –
COc1cc(OC(F)(F)F)cc(C(C)(C)c2cc(Cl)cc(NC(=O)c3cc4cc(C(C)(C)S(C)(=O)=O)ccc4s3)n2)c1 [Example 91, N-(4-chloro-6-(2-(3-methoxy-5-(trifluoromethoxy)phenyl)propan-2-yl)pyridin-2-yl)-5-(2-(methylsulfonyl)propan-2-yl)benzo[b]thiophene-2-carboxamide] | > 50 µM | 0.0051 µM | – | –
CC(C)(c1cc(Cl)cc(NC(=O)c2cc3cc(C(C)(C)S(C)(=O)=O)ccc3s2)c1)c1cc(OC(F)(F)F)cc(OC(F)(F)C(F)F)c1 [Example 5, N-(3-chloro-5-(2-(3-(1,1,2,2-tetrafluoroethoxy)-5-(trifluoromethoxy)phenyl)propan-2-yl)phenyl)-5-(2-(methylsulfonyl)propan-2-yl)benzo[b]thiophene-2-carboxamide] | > 50 µM | 0.028 µM | – | –
CC(C)(c1cc(Cl)cc(NC(=O)c2cc3cc(C(C)(C)S(C)(=O)=O)ccc3s2)c1)c1cc(OCCN2CCOCC2)cc(OC(F)(F)F)c1 [Example 8, N-(3-chloro-5-(2-(3-(2-morpholinoethoxy)-5-(trifluoromethoxy)phenyl)propan-2-yl)phenyl)-5-(2-(methylsulfonyl)propan-2-yl)benzo[b]thiophene-2-carboxamide] | > 50 µM | 0.061 µM | – | –

Next, values leading:

IC50 (STAT1; Homo sapiens) | IC50 (STAT3; Homo sapiens) | IC50 (STAT1) | IC50 (STAT3) | Compound
> 50 µM | 0.0076 µM | – | – | CCOc1cc(OC(F)(F)F)cc(C(C)(C)c2cc(Cl)cc(NC(=O)c3cc4cc(C(C)(C)S(C)(=O)=O)ccc4s3)c2)c1 [Example 1, N-(3-chloro-5-(2-(3-ethoxy-5-(trifluoromethoxy)phenyl)propan-2-yl)phenyl)-5-(2-(methylsulfonyl)propan-2-yl)benzo[b]thiophene-2-carboxamide]
> 50 µM | 0.1 µM | – | – | CC(C)(c1ccc(Cl)cc1)c1cc(Cl)cc(NC(=O)c2cc3ccc(C(C)(C)S(C)(=O)=O)cc3[nH]2)c1 [Example 35, N-(3-chloro-5-(2-(4-chlorophenyl)propan-2-yl)phenyl)-6-(2-(methylsulfonyl)propan-2-yl)-1H-indole-2-carboxamide]
> 50 µM | 0.08 µM | – | – | CC(C)(c1ccc2sc(C(=O)Nc3cc(Cl)cc(Oc4ccc(Cl)cn4)c3)cc2c1)S(C)(=O)=O [Example 61, N-(3-chloro-5-((5-chloropyridin-2-yl)oxy)phenyl)-5-(2-(methylsulfonyl)propan-2-yl)benzo[b]thiophene-2-carboxamide]
> 50 µM | 0.0091 µM | – | – | CC(C)(c1cc(Br)cc(NC(=O)c2cc3cc(C(C)(C)S(C)(=O)=O)ccc3s2)c1)c1cc(OC(F)(F)F)cc(OC(F)(F)C(F)F)c1 [Example 4, N-(3-bromo-5-(2-(3-(1,1,2,2-tetrafluoroethoxy)-5-(trifluoromethoxy)phenyl)propan-2-yl)phenyl)-5-(2-(methylsulfonyl)propan-2-yl)benzo[b]thiophene-2-carboxamide]
> 50 µM | 0.078 µM | – | – | CC(C)(c1cc2cc(C(=O)Nc3cc(Cl)cc(Oc4ccc(Cl)cc4)c3)sc2cn1)S(C)(=O)=O [Example 50, N-(3-chloro-5-(4-chlorophenoxy)phenyl)-5-(2-(methylsulfonyl)propan-2-yl)thieno[2,3-c]pyridine-2-carboxamide]
> 50 µM | 0.008 µM | – | – | CCCOc1cc(OC(F)(F)F)cc(C(C)(C)c2cc(Cl)cc(NC(=O)c3cc4cc(C(C)(C)S(C)(=O)=O)ccc4s3)c2)c1 [Example 2, N-(3-chloro-5-(2-(3-propoxy-5-(trifluoromethoxy)phenyl)propan-2-yl)phenyl)-5-(2-(methylsulfonyl)propan-2-yl)benzo[b]thiophene-2-carboxamide]
> 50 µM | 0.0013 µM | – | – | COc1sccc1C(C)(C)c1cc(Cl)cc(NC(=O)c2cc3cc(C(C)(C)S(C)(=O)=O)ccc3s2)c1 [Example 30, N-(3-chloro-5-(2-(2-methoxythiophen-3-yl)propan-2-yl)phenyl)-5-(2-(methylsulfonyl)propan-2-yl)benzo[b]thiophene-2-carboxamide]
14.5 µM | 2.1 µM | – | – | CC(C)(c1ccc2sc(C(=O)Nc3cc(Cl)nc(OC4CCN5CCCC5C4)c3)cc2c1)S(C)(=O)=O (centres unmarked) [Example 102, N-(2-chloro-6-((octahydroindolizin-7-yl)oxy)pyridin-4-yl)-5-(2-(methylsulfonyl)propan-2-yl)benzo[b]thiophene-2-carboxamide]
> 50 µM | 0.0097 µM | – | – | CC#Cc1cc(OC(F)(F)F)cc(C(C)(C)c2cc(Cl)cc(NC(=O)c3cc4cc(C(C)(C)S(C)(=O)=O)ccc4s3)c2)c1 [Example 87, N-(3-chloro-5-(2-(3-(prop-1-yn-1-yl)-5-(trifluoromethoxy)phenyl)propan-2-yl)phenyl)-5-(2-(methylsulfonyl)propan-2-yl)benzo[b]thiophene-2-carboxamide]
3.1 µM | 0.39 µM | – | – | CC(C)(c1ccc2sc(C(=O)Nc3cc(Cl)nc(Oc4ccc(Cl)cc4)n3)cc2c1)S(C)(=O)=O [Example 76, N-(6-chloro-2-(4-chlorophenoxy)pyrimidin-4-yl)-5-(2-(methylsulfonyl)propan-2-yl)benzo[b]thiophene-2-carboxamide]
